What was measured:
[1] = target: T1, MRP5 (ATP-binding cassette sub-family C member 5) (Homo sapiens, UniProt O15440); test: TP_TRANSPORTER: inhibition of alaninyl-d4TMP by Prostaglandin E1 at a concentration of 20uM in membrane vesicle from MRP5-expressing HEK293 cell; format: functional, cell membranes; parameters: scale not given: the % may be the effect or the level left; conditions: membrane vesicles from MRP5-expressing HEK293 cells, probe alaninyl-d4TMP, read-out: Activity
[2] = target: T2, ATP-binding cassette sub-family C member 4 (Homo sapiens, UniProt O15439); test: TP_TRANSPORTER: inhibition of E217betaG in the presence of Celecoxib at a concentration of 50uM in membrane vesicles from MRP4-expressing Sf9 cells; format: functional, cell membranes, Membrane vesicle; parameters: scale not given: the % may be the effect or the level left; conditions: sf9, 50 µM
T2 sequence (O15439 whole entry): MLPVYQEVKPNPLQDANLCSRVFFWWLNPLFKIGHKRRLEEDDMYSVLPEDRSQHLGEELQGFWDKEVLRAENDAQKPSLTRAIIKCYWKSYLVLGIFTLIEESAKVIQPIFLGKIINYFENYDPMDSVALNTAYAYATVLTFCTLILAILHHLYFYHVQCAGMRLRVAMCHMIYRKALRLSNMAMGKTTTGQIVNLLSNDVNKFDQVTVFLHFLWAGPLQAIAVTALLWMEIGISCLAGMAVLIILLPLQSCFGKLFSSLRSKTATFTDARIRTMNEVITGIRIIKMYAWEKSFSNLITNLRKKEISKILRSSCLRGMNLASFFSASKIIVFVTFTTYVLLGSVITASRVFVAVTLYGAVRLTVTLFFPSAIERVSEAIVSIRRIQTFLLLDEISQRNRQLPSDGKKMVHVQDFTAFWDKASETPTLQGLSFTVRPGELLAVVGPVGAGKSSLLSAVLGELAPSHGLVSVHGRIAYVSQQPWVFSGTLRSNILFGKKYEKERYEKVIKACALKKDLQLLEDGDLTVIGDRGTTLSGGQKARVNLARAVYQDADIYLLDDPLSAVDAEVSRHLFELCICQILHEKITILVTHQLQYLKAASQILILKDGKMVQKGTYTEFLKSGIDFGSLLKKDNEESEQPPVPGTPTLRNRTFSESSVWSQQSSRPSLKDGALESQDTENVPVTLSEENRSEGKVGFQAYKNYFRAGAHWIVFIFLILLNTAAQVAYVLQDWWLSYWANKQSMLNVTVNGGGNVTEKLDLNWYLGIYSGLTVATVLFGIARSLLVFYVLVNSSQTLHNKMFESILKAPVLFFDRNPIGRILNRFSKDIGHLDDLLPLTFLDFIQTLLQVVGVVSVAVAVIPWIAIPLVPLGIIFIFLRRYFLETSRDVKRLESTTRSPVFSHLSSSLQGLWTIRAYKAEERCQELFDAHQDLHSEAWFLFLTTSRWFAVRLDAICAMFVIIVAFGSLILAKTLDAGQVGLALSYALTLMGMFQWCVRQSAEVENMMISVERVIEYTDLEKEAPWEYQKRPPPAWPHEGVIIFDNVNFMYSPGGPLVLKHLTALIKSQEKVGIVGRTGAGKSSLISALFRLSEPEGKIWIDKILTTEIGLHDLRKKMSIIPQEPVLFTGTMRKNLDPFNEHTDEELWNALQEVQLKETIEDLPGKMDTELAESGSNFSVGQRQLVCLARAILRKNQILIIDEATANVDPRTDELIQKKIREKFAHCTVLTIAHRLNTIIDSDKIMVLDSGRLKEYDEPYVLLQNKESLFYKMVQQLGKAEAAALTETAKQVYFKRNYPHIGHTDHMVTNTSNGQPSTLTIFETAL

[3] = target: T3, Multidrug resistance-associated protein 1 (Homo sapiens, UniProt P33527); test: TP_TRANSPORTER: inhibition of E217betaG in the presence of Diclofenac at a concentration of 100uM in membrane vesicles from MRP1-expressing Sf9 cells; format: functional, cell membranes, Membrane vesicle; parameters: scale not given: the % may be the effect or the level left; conditions: sf9, 100 µM
T3 sequence (P33527 whole entry): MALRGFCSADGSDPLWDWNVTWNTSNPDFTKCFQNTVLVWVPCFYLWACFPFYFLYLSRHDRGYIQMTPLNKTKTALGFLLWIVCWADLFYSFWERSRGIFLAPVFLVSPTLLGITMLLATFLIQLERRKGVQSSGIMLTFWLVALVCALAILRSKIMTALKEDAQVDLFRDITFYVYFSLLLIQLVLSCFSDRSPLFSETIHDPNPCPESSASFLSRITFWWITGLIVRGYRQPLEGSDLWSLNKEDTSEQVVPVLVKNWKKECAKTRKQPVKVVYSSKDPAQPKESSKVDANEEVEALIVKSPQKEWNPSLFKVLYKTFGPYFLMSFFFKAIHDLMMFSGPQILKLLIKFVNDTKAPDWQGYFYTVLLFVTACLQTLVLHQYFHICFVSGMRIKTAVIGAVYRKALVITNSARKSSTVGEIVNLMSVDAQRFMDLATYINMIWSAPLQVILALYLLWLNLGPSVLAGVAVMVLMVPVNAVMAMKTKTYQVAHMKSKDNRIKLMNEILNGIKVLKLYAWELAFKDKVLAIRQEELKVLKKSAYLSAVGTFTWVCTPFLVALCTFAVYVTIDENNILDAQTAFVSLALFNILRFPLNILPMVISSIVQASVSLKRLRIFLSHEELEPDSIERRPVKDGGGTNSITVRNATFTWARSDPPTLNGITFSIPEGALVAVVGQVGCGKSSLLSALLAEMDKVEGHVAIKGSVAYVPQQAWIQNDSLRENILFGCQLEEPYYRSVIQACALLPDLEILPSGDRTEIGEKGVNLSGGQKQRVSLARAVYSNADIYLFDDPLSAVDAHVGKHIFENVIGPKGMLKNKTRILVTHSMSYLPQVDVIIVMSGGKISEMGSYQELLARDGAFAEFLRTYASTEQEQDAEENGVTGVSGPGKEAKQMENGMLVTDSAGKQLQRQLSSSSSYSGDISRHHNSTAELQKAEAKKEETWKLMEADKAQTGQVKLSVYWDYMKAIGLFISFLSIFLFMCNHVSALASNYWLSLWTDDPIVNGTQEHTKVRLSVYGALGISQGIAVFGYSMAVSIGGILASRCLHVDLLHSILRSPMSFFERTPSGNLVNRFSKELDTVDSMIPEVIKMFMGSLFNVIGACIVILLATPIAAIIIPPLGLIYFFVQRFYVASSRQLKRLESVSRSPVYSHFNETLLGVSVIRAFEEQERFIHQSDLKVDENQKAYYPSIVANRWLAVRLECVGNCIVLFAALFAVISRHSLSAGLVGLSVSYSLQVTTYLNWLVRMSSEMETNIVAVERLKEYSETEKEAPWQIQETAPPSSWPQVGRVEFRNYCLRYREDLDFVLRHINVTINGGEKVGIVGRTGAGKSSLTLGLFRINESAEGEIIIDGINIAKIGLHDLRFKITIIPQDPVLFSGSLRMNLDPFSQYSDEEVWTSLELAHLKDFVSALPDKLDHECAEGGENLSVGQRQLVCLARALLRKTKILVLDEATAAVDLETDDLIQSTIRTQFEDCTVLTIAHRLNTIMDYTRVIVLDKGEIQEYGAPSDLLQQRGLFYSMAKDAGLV

[4] = target: T4, MRP4 (ATP-binding cassette sub-family C member 4) (Homo sapiens, UniProt O15439); test: TP_TRANSPORTER: inhibition of E217betaG in the presence of Diclofenac at a concentration of 100uM in membrane vesicles from MRP4-expressing Sf9 cells; format: functional, cell membranes, Membrane vesicle; parameters: scale not given: the % may be the effect or the level left; conditions: probe E217betaG, read-out: Activity
T4 sequence (O15439 whole entry): T2 sequence (O15439 whole entry)

[5] = target: T1, MRP5 (ATP-binding cassette sub-family C member 5); test: TP_TRANSPORTER: inhibition of alaninyl-d4TMP by Prostaglandin E2 at a concentration of 20uM in membrane vesicle from MRP5-expressing HEK293 cells; format: functional, cell membranes; parameters: scale not given: the % may be the effect or the level left; conditions: membrane vesicles from MRP5-expressing HEK293 cells, probe alaninyl-d4TMP, read-out: Activity
[6] = target: T1, MRP5 (ATP-binding cassette sub-family C member 5); test: TP_TRANSPORTER: inhibition of alaninyl-d4TMP by Prostaglandin F2alpha at a concentration of 20uM in membrane vesicle from MRP5-expressing HEK293 cells; format: functional, cell membranes; parameters: scale not given: the % may be the effect or the level left; conditions: membrane vesicles from MRP5-expressing HEK293 cells, probe alaninyl-d4TMP, read-out: Activity
[7] = target: T2, ATP-binding cassette sub-family C member 4; test: TP_TRANSPORTER: inhibition of alaninyl-d4TMP in the presence of Prostaglandin F2alpha at a concentration of 20uM in membrane vesicles from MRP4-expressing Sf9 cells; format: functional, cell membranes, Membrane vesicle; parameters: scale not given: the % may be the effect or the level left; conditions: sf9, 20 µM
[8] = target: T2, ATP-binding cassette sub-family C member 4; test: TP_TRANSPORTER: inhibition of E217betaG in the presence of Flurbiprofen at a concentration of 50uM in membrane vesicles from MRP4-expressing Sf9 cells; format: functional, cell membranes, Membrane vesicle; parameters: scale not given: the % may be the effect or the level left; conditions: sf9, 50 µM
[9] = target: T2, ATP-binding cassette sub-family C member 4; test: TP_TRANSPORTER: inhibition of E217betaG in the presence of Ibuprofen at a concentration of 200uM in membrane vesicles from MRP4-expressing Sf9 cells; format: functional, cell membranes, Membrane vesicle; parameters: scale not given: the % may be the effect or the level left; conditions: sf9, 200 µM
[10] = target: T5, MRP1 (Multidrug resistance-associated protein 1) (Homo sapiens, UniProt P33527); test: TP_TRANSPORTER: inhibition of E217betaG in the presence of Ibuprofen at a concentration of 200uM in membrane vesicles from MRP1-expressing Sf9 cells; format: functional, cell membranes, Membrane vesicle; parameters: scale not given: the % may be the effect or the level left; conditions: probe E217betaG, read-out: Activity
T5 sequence (P33527 whole entry): as above

[11] = target: T2, ATP-binding cassette sub-family C member 4; test: TP_TRANSPORTER: inhibition of E217betaG in the presence of Indomethacin at a concentration of 50uM in membrane vesicles from MRP4-expressing Sf9 cells; format: functional, cell membranes, Membrane vesicle; parameters: scale not given: the % may be the effect or the level left; conditions: sf9, 50 µM
[12] = target: T3, Multidrug resistance-associated protein 1; test: TP_TRANSPORTER: inhibition of E217betaG in the presence of Indomethacin at a concentration of 50uM in membrane vesicles from MRP1-expressing Sf9 cells; format: functional, cell membranes, Membrane vesicle; parameters: scale not given: the % may be the effect or the level left; conditions: sf9, 50 µM
[13] = target: T4, MRP4 (ATP-binding cassette sub-family C member 4); test: TP_TRANSPORTER: inhibition of E217betaG in the presence of Indoprofen at a concentration of 50uM in membrane vesicles from MRP4-expressing Sf9 cells; format: functional, cell membranes, Membrane vesicle; parameters: scale not given: the % may be the effect or the level left; conditions: probe E217betaG, read-out: Activity
[14] = target: T2, ATP-binding cassette sub-family C member 4; test: TP_TRANSPORTER: inhibition of E217betaG in the presence of Ketoprofen at a concentration of 50uM in membrane vesicles from MRP4-expressing Sf9 cells; format: functional, cell membranes, Membrane vesicle; parameters: scale not given: the % may be the effect or the level left; conditions: sf9, 50 µM
[15] = target: Multidrug resistance associated protein (Homo sapiens) (UniProt Q96QA9); test: TP_TRANSPORTER: inhibition of alaninyl-d4TMP by Prostaglandin A1 at a concentration of 20uM in membrane vesicle from MRP3-expressing Sf9 cells; format: functional, cell membranes; parameters: scale not given: the % may be the effect or the level left
Chain of Multidrug resistance associated protein (Homo sapiens) (Q96QA9 as listed by the source): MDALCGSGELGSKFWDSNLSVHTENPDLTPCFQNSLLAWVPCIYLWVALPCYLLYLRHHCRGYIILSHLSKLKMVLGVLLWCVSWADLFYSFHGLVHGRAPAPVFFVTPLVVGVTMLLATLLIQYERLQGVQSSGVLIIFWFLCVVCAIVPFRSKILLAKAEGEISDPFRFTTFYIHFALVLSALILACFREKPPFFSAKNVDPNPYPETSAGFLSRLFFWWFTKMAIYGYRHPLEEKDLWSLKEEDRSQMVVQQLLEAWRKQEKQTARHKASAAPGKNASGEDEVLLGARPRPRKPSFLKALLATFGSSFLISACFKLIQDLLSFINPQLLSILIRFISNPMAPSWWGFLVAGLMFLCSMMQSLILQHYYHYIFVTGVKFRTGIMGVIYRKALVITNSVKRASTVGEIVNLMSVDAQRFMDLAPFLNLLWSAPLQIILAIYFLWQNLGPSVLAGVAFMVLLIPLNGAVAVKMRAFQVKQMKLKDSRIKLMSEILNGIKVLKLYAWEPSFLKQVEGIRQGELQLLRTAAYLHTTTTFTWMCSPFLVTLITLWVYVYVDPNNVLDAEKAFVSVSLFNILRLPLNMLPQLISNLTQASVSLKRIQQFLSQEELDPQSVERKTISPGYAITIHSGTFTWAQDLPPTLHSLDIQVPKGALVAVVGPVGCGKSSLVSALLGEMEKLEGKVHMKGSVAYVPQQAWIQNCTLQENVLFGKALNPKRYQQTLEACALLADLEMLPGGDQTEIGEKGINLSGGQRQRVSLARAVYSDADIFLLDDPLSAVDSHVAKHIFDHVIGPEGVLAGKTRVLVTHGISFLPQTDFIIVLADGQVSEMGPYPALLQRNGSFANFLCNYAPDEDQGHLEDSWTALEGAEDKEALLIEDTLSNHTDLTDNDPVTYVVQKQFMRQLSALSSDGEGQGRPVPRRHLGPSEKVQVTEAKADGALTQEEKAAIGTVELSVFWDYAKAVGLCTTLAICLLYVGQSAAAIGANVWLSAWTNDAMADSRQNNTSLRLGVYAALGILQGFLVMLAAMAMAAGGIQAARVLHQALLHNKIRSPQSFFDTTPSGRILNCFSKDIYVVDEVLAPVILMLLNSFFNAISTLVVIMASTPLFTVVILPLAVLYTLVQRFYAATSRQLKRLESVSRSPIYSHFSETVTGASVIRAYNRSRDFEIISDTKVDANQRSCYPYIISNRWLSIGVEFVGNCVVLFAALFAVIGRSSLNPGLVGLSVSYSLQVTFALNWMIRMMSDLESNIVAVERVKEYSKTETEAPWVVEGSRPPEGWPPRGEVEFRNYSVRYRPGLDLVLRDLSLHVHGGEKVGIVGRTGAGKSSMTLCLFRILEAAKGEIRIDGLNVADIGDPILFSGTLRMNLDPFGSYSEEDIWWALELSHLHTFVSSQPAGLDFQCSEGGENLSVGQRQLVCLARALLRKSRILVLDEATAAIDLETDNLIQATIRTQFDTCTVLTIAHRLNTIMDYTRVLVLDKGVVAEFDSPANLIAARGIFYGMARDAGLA

[16] = target: T1, MRP5 (ATP-binding cassette sub-family C member 5); test: TP_TRANSPORTER: inhibition of alaninyl-d4TMP by Prostaglandin A1 at a concentration of 20uM in membrane vesicle from MRP5-expressing HEK293 cells; format: functional, cell membranes; parameters: scale not given: the % may be the effect or the level left; conditions: probe alaninyl-d4TMP, read-out: Activity
[17] = target: T2, ATP-binding cassette sub-family C member 4; test: TP_TRANSPORTER: inhibition of alaninyl-d4TMP in the presence of Prostaglandin A1 at a concentration of 20uM in membrane vesicles from MRP4-expressing Sf9 cells; format: functional, cell membranes, Membrane vesicle; parameters: scale not given: the % may be the effect or the level left; conditions: sf9, 20 µM
[18] = target: T4, MRP4 (ATP-binding cassette sub-family C member 4); test: TP_TRANSPORTER: inhibition of alaninyl-d4TMP in the presence of Prostaglandin F1alpha at a concentration of 20uM in membrane vesicles from MRP4-expressing Sf9 cells; format: functional, cell membranes, Membrane vesicle; parameters: scale not given: the % may be the effect or the level left; conditions: probe alaninyl-d4TMP, read-out: Activity
[19] = target: T2, ATP-binding cassette sub-family C member 4; test: TP_TRANSPORTER: inhibition of E217betaG in the presence of Rofecoxib at a concentration of 100uM in membrane vesicles from MRP4-expressing Sf9 cells; format: functional, cell membranes, Membrane vesicle; parameters: scale not given: the % may be the effect or the level left; conditions: sf9, 100 µM
[20] = target: T4, MRP4 (ATP-binding cassette sub-family C member 4); test: TP_TRANSPORTER: inhibition of alaninyl-d4TMP in the presence of Thromboxane B2 at a concentration of 20uM in membrane vesicles from MRP4-expressing Sf9 cells; format: functional, cell membranes, Membrane vesicle; parameters: scale not given: the % may be the effect or the level left; conditions: probe alaninyl-d4TMP, read-out: Activity
[21] = target: ATP-binding cassette sub-family C member 5 (Homo sapiens, UniProt O15440); test: TP_TRANSPORTER: inhibition of alaninyl-d4TMP by Thromboxane B2 at a concentration of 20uM in membrane vesicle from MRP5-expressing HEK293 cells; format: functional, cell membranes; parameters: scale not given: the % may be the effect or the level left; conditions: hek293, 20 µM
[22] = target: Multidrug resistance associated protein (Homo sapiens) (UniProt Q96QA9); test: TP_TRANSPORTER: inhibition of alaninyl-d4TMP by Thromboxane B2 at a concentration of 20uM in membrane vesicle from MRP3-expressing Sf9 cells; format: functional, cell membranes; parameters: scale not given: the % may be the effect or the level left
[23] = target: T5, MRP1 (Multidrug resistance-associated protein 1); test: TP_TRANSPORTER: inhibition of alaninyl-d4TMP in the presence of Thromboxane B2 at a concentration of 20uM in membrane vesicles from MRP1-expressing Sf9 cells; format: functional, cell membranes, Membrane vesicle; parameters: scale not given: the % may be the effect or the level left; conditions: probe alaninyl-d4TMP, read-out: Activity
[24] = substrate: CCCCC[C@H](O)/C=C/[C@H]1[C@H](O)CC(=O)[C@@H]1CCCCCCC(=O)O; test: (§1) TP_TRANSPORTER: uptake (vesicle) in membrane vesicles from MRP4-expressing Sf9 cells; format: functional, cell membranes
[25] = substrate: CCCCC[C@H](O)/C=C/[C@H]1[C@H](O)CC(=O)[C@@H]1C/C=C\CCCC(=O)O; test: as §1; format: functional, cell membranes

T1 sequence (O15440 whole entry): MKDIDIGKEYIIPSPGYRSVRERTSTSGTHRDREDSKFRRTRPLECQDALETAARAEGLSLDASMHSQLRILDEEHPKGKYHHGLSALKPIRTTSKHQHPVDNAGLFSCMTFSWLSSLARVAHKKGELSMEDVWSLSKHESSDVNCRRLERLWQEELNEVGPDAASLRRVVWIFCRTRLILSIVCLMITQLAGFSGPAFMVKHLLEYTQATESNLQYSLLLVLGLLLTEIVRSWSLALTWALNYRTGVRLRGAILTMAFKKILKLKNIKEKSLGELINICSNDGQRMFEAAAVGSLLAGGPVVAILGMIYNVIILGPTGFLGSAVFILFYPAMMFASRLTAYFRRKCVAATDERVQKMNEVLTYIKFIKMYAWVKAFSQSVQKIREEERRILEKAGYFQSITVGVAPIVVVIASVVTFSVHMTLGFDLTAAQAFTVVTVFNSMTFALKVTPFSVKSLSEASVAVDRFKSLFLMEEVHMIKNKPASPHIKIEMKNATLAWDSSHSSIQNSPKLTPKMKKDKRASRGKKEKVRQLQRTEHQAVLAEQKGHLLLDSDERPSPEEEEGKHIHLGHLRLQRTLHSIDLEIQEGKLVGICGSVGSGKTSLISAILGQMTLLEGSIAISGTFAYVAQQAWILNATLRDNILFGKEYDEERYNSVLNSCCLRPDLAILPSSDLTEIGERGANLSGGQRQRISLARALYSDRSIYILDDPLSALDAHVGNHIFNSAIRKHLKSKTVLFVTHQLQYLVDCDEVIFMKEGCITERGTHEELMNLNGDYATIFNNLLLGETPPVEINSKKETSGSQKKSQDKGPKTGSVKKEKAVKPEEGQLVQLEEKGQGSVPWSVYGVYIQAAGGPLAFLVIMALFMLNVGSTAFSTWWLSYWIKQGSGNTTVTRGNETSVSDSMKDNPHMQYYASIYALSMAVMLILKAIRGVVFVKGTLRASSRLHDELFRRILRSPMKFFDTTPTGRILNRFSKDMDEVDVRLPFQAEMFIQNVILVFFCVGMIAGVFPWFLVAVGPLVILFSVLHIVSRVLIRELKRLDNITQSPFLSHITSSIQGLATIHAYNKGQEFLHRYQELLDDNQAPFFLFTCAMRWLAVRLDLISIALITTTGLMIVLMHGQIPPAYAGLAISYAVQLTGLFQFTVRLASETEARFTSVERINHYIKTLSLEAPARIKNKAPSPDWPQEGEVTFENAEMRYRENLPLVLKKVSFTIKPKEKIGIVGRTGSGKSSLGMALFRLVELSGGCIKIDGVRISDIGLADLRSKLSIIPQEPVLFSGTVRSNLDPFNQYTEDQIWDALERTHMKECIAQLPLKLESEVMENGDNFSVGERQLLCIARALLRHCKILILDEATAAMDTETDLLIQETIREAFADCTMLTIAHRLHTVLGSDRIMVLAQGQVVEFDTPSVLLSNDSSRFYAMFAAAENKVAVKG

CCCCC[C@H](O)/C=C/[C@H]1[C@H](O)CC(=O)[C@@H]1CCCCCCC(=O)O [ALPROSTADIL]
activity at 20 µM [1]: 69%

Cc1ccc(-c2cc(C(F)(F)F)nn2-c2ccc(S(N)(=O)=O)cc2)cc1 [CELECOXIB]
Activity [2]: 78%

O=C(O)Cc1ccccc1Nc1c(Cl)cccc1Cl [DICLOFENAC]
Activity [3]: 82%
activity at 100 µM [4]: 61%

CCCCC[C@H](O)/C=C/[C@H]1[C@H](O)CC(=O)[C@@H]1C/C=C\CCCC(=O)O [DINOPROSTONE]
activity at 20 µM [5]: 74%

CCCCC[C@H](O)/C=C/[C@@H]1[C@@H](C/C=C\CCCC(=O)O)[C@@H](O)C[C@H]1O [DINOPROST]
activity at 20 µM [6]: 63%
Activity [7]: 15%

CC(C(=O)O)c1ccc(-c2ccccc2)c(F)c1 (stereo not given) [FLURBIPROFEN]
Activity [8]: 23%

CC(C)Cc1ccc(C(C)C(=O)O)cc1 (stereo not given) [IBUPROFEN]
Activity [9]: 31%
activity at 200 µM [10]: 79%

COc1ccc2c(c1)c(CC(=O)O)c(C)n2C(=O)c1ccc(Cl)cc1 [INDOMETHACIN]
Activity [11]: 11%
Activity [12]: 56%

CC(C(=O)O)c1ccc(N2Cc3ccccc3C2=O)cc1 (stereo not given) [INDOPROFEN]
activity at 50 µM [13]: 17%

CC(C(=O)O)c1cccc(C(=O)c2ccccc2)c1 (stereo not given) [KETOPROFEN]
Activity [14]: 35%

CCCCC[C@H](O)/C=C/[C@H]1C=CC(=O)[C@@H]1CCCCCCC(=O)O [PROSTAGLANDIN A1]
Activity [15]: 76%
activity at 20 µM [16]: 51%
Activity [17]: 2%

CCCCC[C@H](O)/C=C/[C@@H]1[C@@H](CCCCCCC(=O)O)[C@@H](O)C[C@H]1O [PROSTAGLANDIN F1ALPHA]
activity at 20 µM [18]: 29%

CS(=O)(=O)c1ccc(C2=C(c3ccccc3)C(=O)OC2)cc1 [ROFECOXIB]
Activity [19]: 80%

CCCCC[C@H](O)/C=C/[C@H]1OC(O)C[C@H](O)[C@@H]1C/C=C\CCCC(=O)O (stereo not given in full) [THROMBOXANE B2]
activity at 20 µM [20]: 29%
Activity [21]: 77%
Activity [22]: 76%
activity at 20 µM [23]: 66%

B1: ATP-binding cassette sub-family C member 4 (Homo sapiens) (protein)
chain: T2 sequence (O15439 whole entry)
Km [24]: 2.1 µM
Km [25]: 3.4 µM

From ChEMBL document CHEMBL2073947, “The human multidrug resistance protein MRP4 functions as a prostaglandin efflux transporter and is inhibited by nonsteroidal antiinflammatory drugs” (Proc Natl Acad Sci U S A, 2003)
